Measurements as given in PubChem BioAssay AID248 (DTP/NCI, 2004).
Values joined by “and” are separate entries in the source; they are usually repeats but may differ in a detail not shown here. Identical values can stand only once. Toxic doses and inconclusive results are not listed. Rule as the data show it: active = T/C of 150% or more; inactive = T/C below 125%.

Tested on: L1210 leukemia ip in BDF1 mice, survival T/C
Assay: NCI In Vivo Anticancer Drug Screen. Data for tumor model L1210 Leukemia (intraperitoneal) in B6D2F1 (BDF1) mice
Conditions: endpoint: mean survival time, higher = longer survival
In short: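 Transplantable tumor model; survival measured in treated vs vehicle control mice. Value = treated/control.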

[1] = dose: 100.0 mg/kg/injection, schedule: Q01DX009 (ip), vehicle: Klucel (hydroxypropylcellulose) (HPC)
[2] = dose: 200.0 mg/kg/injection, schedule: Q01DX009 (ip), vehicle: Klucel (hydroxypropylcellulose) (HPC)
[3] = dose: 100.0 mg/kg/injection, schedule: Q04DX002 (ip), vehicle: saline with Tween-80
[4] = dose: 100.0 mg/kg/injection, schedule: Q04DX003 (ip), vehicle: Klucel (hydroxypropylcellulose) (HPC)
[5] = dose: 200.0 mg/kg/injection, schedule: Q04DX003 (ip), vehicle: Klucel (hydroxypropylcellulose) (HPC)
[6] = dose: 400.0 mg/kg/injection, schedule: Q04DX003 (ip), vehicle: Klucel (hydroxypropylcellulose) (HPC)
[7] = dose: 100.0 mg/kg/injection, schedule: Q04DX002 (ip), vehicle: Klucel (hydroxypropylcellulose) (HPC)
[8] = dose: 200.0 mg/kg/injection, schedule: Q04DX002 (ip), vehicle: Klucel (hydroxypropylcellulose) (HPC)
[9] = dose: 400.0 mg/kg/injection, schedule: Q04DX002 (ip), vehicle: Klucel (hydroxypropylcellulose) (HPC)
[10] = dose: 100.0 mg/kg/injection, schedule: Q01DX009 (ip), vehicle: saline with Tween-80
[11] = dose: 200.0 mg/kg/injection, schedule: Q01DX009 (ip), vehicle: saline with Tween-80
[12] = dose: 400.0 mg/kg/injection, schedule: Q01DX009 (ip), vehicle: saline with Tween-80
[13] = dose: 100.0 mg/kg/injection, schedule: Q01DX009 (ip), vehicle: saline
[14] = dose: 100.0 mg/kg/injection, schedule: Q04DX003 (ip), vehicle: saline
[15] = dose: 200.0 mg/kg/injection, schedule: Q04DX003 (ip), vehicle: saline
[16] = dose: 100.0 mg/kg/injection, schedule: Q04DX003 (ip), vehicle: saline with Tween-80
[17] = dose: 200.0 mg/kg/injection, schedule: Q04DX003 (ip), vehicle: saline with Tween-80
[18] = dose: 400.0 mg/kg/injection, schedule: Q04DX003 (ip), vehicle: saline with Tween-80
[19] = dose: 50.0 mg/kg/injection, schedule: Q01DX009 (ip), vehicle: Klucel (hydroxypropylcellulose) (HPC)
[20] = dose: 75.0 mg/kg/injection, schedule: Q01DX001 (ip), vehicle: saline
[21] = dose: 12.5 mg/kg/injection, schedule: Q01DX009 (ip), vehicle: saline
[22] = dose: 25.0 mg/kg/injection, schedule: Q01DX009 (ip), vehicle: saline
[23] = dose: 50.0 mg/kg/injection, schedule: Q01DX009 (ip), vehicle: saline

Measured: T/C

O=C(Nc1ccc(F)c([N+](=O)[O-])c1)N(Cc1ccccc1)c1ccccc1
inactive: [1] 101 % of control | [2] 104 % of control | dose: 400.0 mg/kg/injection, schedule: Q01DX009 (ip), vehicle: Klucel (hydroxypropylcellulose) (HPC) 98 % of control

ClCCOCOCCCl
inactive: dose: 20.0 mg/kg/injection, schedule: Q04DX003 (ip), vehicle: Klucel (hydroxypropylcellulose) (HPC) 104 % of control | dose: 40.0 mg/kg/injection, schedule: Q04DX003 (ip), vehicle: Klucel (hydroxypropylcellulose) (HPC) 104 % of control | dose: 80.0 mg/kg/injection, schedule: Q04DX003 (ip), vehicle: Klucel (hydroxypropylcellulose) (HPC) 101 % of control

CCCS(=O)(=O)N1CCCC1
inactive: [3] 99 % of control | dose: 200.0 mg/kg/injection, schedule: Q04DX002 (ip), vehicle: saline with Tween-80 105 % of control | dose: 400.0 mg/kg/injection, schedule: Q04DX002 (ip), vehicle: saline with Tween-80 99 % of control

O=[N+]([O-])c1ccc(N=Cc2ccccc2)cc1
inactive: [4] 91 % of control | [5] 96 % of control | [6] 98 % of control

Cc1ccc(Cl)cc1NC(=O)C(C)Oc1ccccc1 (stereo unspecified)
inactive: [7] 89 % of control | [8] 89 % of control | [9] 92 % of control

CC(=O)NC1Cc2cc(C)cc(C)c21 (stereo unspecified)
inactive: dose: 50.0 mg/kg/injection, schedule: Q04DX002 (ip), vehicle: Klucel (hydroxypropylcellulose) (HPC) 105 % of control | [7] 102 % of control | [8] 98 % of control

CCCCCCCCCCC(CCCCCCCCCC)CC1CCCCC1
inactive: dose: 100.0 mg/kg/injection, schedule: Q01DX001 (ip), vehicle: saline + alcohol 102 % of control | dose: 200.0 mg/kg/injection, schedule: Q01DX001 (ip), vehicle: saline + alcohol 94 % of control | dose: 400.0 mg/kg/injection, schedule: Q01DX001 (ip), vehicle: saline + alcohol 100 % of control

COc1ccc(C(=O)NCCc2ccccc2)cc1
inactive: [4] 96 % of control | [5] 105 % of control | [6] 104 % of control

COc1cc2c(cc1O)C(=O)CCCC2
inactive: dose: 100.0 mg/kg/injection, schedule: Q01DX009 (ip), vehicle: saline sonified 94 % of control | [4] 94 % of control | dose: 200.0 mg/kg/injection, schedule: Q01DX009 (ip), vehicle: saline sonified 103 % of control | [5] 92 % of control | dose: 400.0 mg/kg/injection, schedule: Q01DX009 (ip), vehicle: saline sonified 90 % of control | [6] 100 % of control

COC1OC2COc3ccccc3OC2C(NC(N)=O)C1O (stereo unspecified)
inactive: [10] 97 % of control | [11] 100 % of control | [12] 91 % of control

O=C1CCC(=O)N1CC(O)COc1ccc(Cl)cc1 (stereo unspecified)
inactive: [10] 96 % of control | [11] 101 % of control | [12] 104 % of control

CN(C)C(=O)Nc1ccc(Cl)cc1
inactive: [13] 91 % of control | [14] 93 % of control | dose: 200.0 mg/kg/injection, schedule: Q01DX009 (ip), vehicle: saline 100 % of control | [15] 98 % of control | dose: 400.0 mg/kg/injection, schedule: Q04DX003 (ip), vehicle: saline 101 % of control

CC1(c2ccccc2)CCc2ccccc21 (stereo unspecified)
inactive: [16] 100 % of control | [17] 98 % of control | [18] 98 % of control

C=C1CC2(OC1=O)C(=O)N(C)c1ccc(I)cc12 (stereo unspecified)
inactive: dose: 25.0 mg/kg/injection, schedule: Q04DX002 (ip), vehicle: saline with Tween-80 101 % of control | dose: 50.0 mg/kg/injection, schedule: Q04DX002 (ip), vehicle: saline with Tween-80 97 % of control | [3] 102 % of control

O=C1NC(c2cccc(OCc3ccccc3)c2)Nc2ccccc21 (stereo unspecified)
inactive: [19] 105 % of control | [1] 107 % of control | dose: 150.0 mg/kg/injection, schedule: Q01DX009 (ip), vehicle: Klucel (hydroxypropylcellulose) (HPC) 109 % of control

CCOC1(C)OC2CCCCC2O1 (stereo unspecified)
inactive: dose: 50.0 mg/kg/injection, schedule: Q01DX009 (ip), vehicle: saline with Tween-80 92 % of control | [10] 92 % of control | [11] 92 % of control

Nc1cc(Cl)c2cccnc2c1O
inactive: dose: 50.0 mg/kg/injection, schedule: Q04DX003 (ip), vehicle: saline with Tween-80 88 % of control | [20] 98 % of control | [16] 100 % of control | dose: 150.0 mg/kg/injection, schedule: Q01DX001 (ip), vehicle: saline 96 % of control

Nc1cc([N+](=O)[O-])ccc1Nc1ccccc1
inactive: dose: 25.0 mg/kg/injection, schedule: Q01DX009 (ip), vehicle: DMSO 93 % of control | dose: 100.0 mg/kg/injection, schedule: Q04DX003 (ip), vehicle: DMSO 89 % of control

C[N+](C)(C)C1C2(CCCCC2)NC(=O)C12CCCCC2 (stereo unspecified)
inactive: [20] 96 % of control

NC(=O)C(NC(=O)c1ccc([N+](=O)[O-])cc1)Sc1ccccc1 (stereo unspecified)
inactive: [7] 109 % of control | [8] 106 % of control | [9] 101 % of control

Cc1ccc(NC(=O)OCCN(C)C)cc1NC(=O)OCCN(C)C
inactive: [21] 98 % of control and 97 % of control | [22] 98 % of control | [23] 101 % of control and 92 % of control | [13] 102 % of control

O=C(O)c1c(Cl)c(Cl)c(Cl)c(C(=O)O)c1Cl
inactive: [19] 98 % of control | [1] 97 % of control | [4] 93 % of control | [2] 98 % of control | [5] 91 % of control

CC1=CCS(=O)(=O)C1
inactive: [14] 103 % of control | [15] 101 % of control

Cc1cc[n+](Cc2ccccc2Cl)c(C)c1
inactive: dose: 6.25 mg/kg/injection, schedule: Q01DX009 (ip), vehicle: saline 105 % of control | dose: 6.25 mg/kg/injection, schedule: Q04DX003 (ip), vehicle: saline 96 % of control | dose: 8.0 mg/kg/injection, schedule: Q01DX009 (ip), vehicle: saline 99 % of control | dose: 12.0 mg/kg/injection, schedule: Q01DX009 (ip), vehicle: saline 96 % of control | dose: 12.5 mg/kg/injection, schedule: Q04DX003 (ip), vehicle: saline 102 % of control | dose: 18.0 mg/kg/injection, schedule: Q01DX009 (ip), vehicle: saline 105 % of control | [22] 113 % of control

Cc1ccc(C(=O)Oc2ccc(N=C=S)cc2)cc1
inactive: dose: 75.0 mg/kg/injection, schedule: Q01DX001 (ip), vehicle: carboxymethylcellulose (CMC) 88 % of control | dose: 150.0 mg/kg/injection, schedule: Q01DX001 (ip), vehicle: carboxymethylcellulose (CMC) 90 % of control | dose: 300.0 mg/kg/injection, schedule: Q01DX001 (ip), vehicle: carboxymethylcellulose (CMC) 87 % of control

Cc1ccccc1Nc1cc(=O)[nH]c(N)n1
inactive: dose: 100.0 mg/kg/injection, schedule: Q01DX Z (ip), vehicle: methylcellulose (MC) 102 % of control | dose: 200.0 mg/kg/injection, schedule: Q01DX Z (ip), vehicle: methylcellulose (MC) 102 % of control

Cc1ccc(Nc2cc(N)nc(N)n2)cc1
inactive: dose: 25.0 mg/kg/injection, schedule: Q01DX Z (ip), vehicle: methylcellulose (MC) 100 % of control

OCCOCCN1CCN(C(c2ccccc2)c2ccc(Cl)cc2)CC1 (stereo unspecified)
inactive: [21] 103 % of control | [22] 103 % of control | dose: 25.0 mg/kg/injection, schedule: Q04DX003 (ip), vehicle: saline 109 % of control | [23] 103 % of control | dose: 50.0 mg/kg/injection, schedule: Q04DX003 (ip), vehicle: saline 96 % of control | [13] 103 % of control | [14] 93 % of control | [15] 90 % of control

Nc1nnnn1-c1cccc(Cl)c1
inactive: [16] 96 % of control | [17] 96 % of control | [18] 94 % of control

NCCc1cnc(N=Nc2ccc(S(N)(=O)=O)cc2)[nH]1
inactive: [16] 93 % of control | [17] 96 % of control | [18] 86 % of control
